Reference: ChEMBL document CHEMBL1201862, “PubChem BioAssay data set” (2004)
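Exposure lasted 48 hours, with cells grown in 96-well plates and compounds tested at five concentrations. Abbreviation: GI50, concentration required for 50% inhibition of growth.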 Calls of active or inactive are those of the source. Cut-off read from the data, not from the text of the source: active = GI50 up to about 1.1 µM and inactive = higher.

Experiments:
Test in all cases: NCI tumour cell line growth inhibition, 48 h
SK-MEL-28 = tested on: SK-MEL-28
IGROV-1 = tested on: IGROV-1
SK-MEL-5 = tested on: SK-MEL-5
HT-29 = tested on: HT-29
HCT-15 = tested on: HCT-15
SNB-19 = tested on: SNB-19
PC-3 = tested on: PC-3
OVCAR-4 = tested on: OVCAR-4
SF-539 = tested on: SF-539
SNB-75 = tested on: SNB-75
OVCAR-5 = tested on: OVCAR-5
Malme-3M = tested on: Malme-3M
UACC-62 = tested on: UACC-62
HCC 2998 = tested on: HCC 2998
SR = tested on: SR
CCRF-CEM = tested on: CCRF-CEM
OVCAR-8 = tested on: OVCAR-8
NCI-H460 = tested on: NCI-H460
NCI-H522 = tested on: NCI-H522
COLO 205 = tested on: COLO 205
RPMI-8226 = tested on: RPMI-8226
OVCAR-3 = tested on: OVCAR-3
DU-145 = tested on: DU-145
UACC-257 = tested on: UACC-257
SF-295 = tested on: SF-295
SK-MEL-2 = tested on: SK-MEL-2
HOP-62 = tested on: HOP-62
A549 = tested on: A549
786-0 = tested on: 786-0
ACHN = tested on: ACHN
NCI-H226 = tested on: NCI-H226
K562 = tested on: K562
RXF 393 = tested on: RXF 393
CAKI-1 = tested on: CAKI-1
HCT-116 = tested on: HCT-116
SK-OV-3 = tested on: SK-OV-3
MDA-N = tested on: MDA-N
NCI/ADR-RES = tested on: NCI/ADR-RES
EKVX = tested on: EKVX
U-251 = tested on: U-251
KM12 = tested on: KM12
UO-31 = tested on: UO-31
MOLT-4 = tested on: MOLT-4
TK-10 = tested on: TK-10
M14 = tested on: M14
NCI-H23 = tested on: NCI-H23
HL-60 = tested on: HL-60
SW-620 = tested on: SW-620
SN12C = tested on: SN12C
SF-268 = tested on: SF-268
BT-549 = tested on: BT-549
MCF7 = tested on: MCF7
LOX IMVI = tested on: LOX IMVI
HOP-92 = tested on: HOP-92
MDA-MB-435 = tested on: MDA-MB-435
Hs-578T = tested on: Hs-578T
A498 = tested on: A498
MDA-MB-231 = tested on: MDA-MB-231
T47D = tested on: T47D

SMILES: COc1cc(/C=C(\C#N)c2ccccn2)cc(Br)c1O
- GI50 (SK-MEL-28): 26.8 µM (inactive)
- GI50 (IGROV-1): 54.7 µM (inactive)
- GI50 (SK-MEL-5): 40.1 µM (inactive)
- GI50 (HT-29): 40.1 µM (inactive)
- GI50 (HCT-15): 21.9 µM
- GI50 (SNB-19): 39 µM (inactive)
- GI50 (PC-3): 68.1 µM (inactive)
- GI50 (OVCAR-4): > 100 µM (inactive)
- GI50 (SF-539): 31.3 µM (inactive)
- GI50 (SNB-75): 37 µM (inactive)
- GI50 (OVCAR-5): > 100 µM (inactive)
- GI50 (Malme-3M): 26.4 µM (inactive)
- GI50 (UACC-62): 55.7 µM (inactive)
- GI50 (HCC 2998): 36.8 µM (inactive)
- GI50 (SR): 22.7 µM (inactive)
- GI50 (CCRF-CEM): 31.3 µM (inactive)
- GI50 (OVCAR-8): 65.3 µM (inactive)
- GI50 (NCI-H460): 36.3 µM (inactive)
- GI50 (NCI-H522): 27.5 µM (inactive)
- GI50 (COLO 205): 35.5 µM (inactive)
- GI50 (RPMI-8226): 40.9 µM (inactive)
- GI50 (OVCAR-3): 31.8 µM (inactive)
- GI50 (DU-145): > 100 µM (inactive)
- GI50 (UACC-257): 48.8 µM (inactive)
- GI50 (SF-295): 37.8 µM (inactive)
- GI50 (SK-MEL-2): 32.9 µM (inactive)
- GI50 (HOP-62): 28.8 µM (inactive)
- GI50 (A549): 58.6 µM (inactive)
- GI50 (786-0): 68.7 µM (inactive)
- GI50 (ACHN): 97.7 µM (inactive)
- GI50 (NCI-H226): 72.6 µM (inactive)
- GI50 (K562): 4.48 µM (inactive)
- GI50 (RXF 393): 46.2 µM (inactive)
- GI50 (CAKI-1): 48.5 µM (inactive)
- GI50 (HCT-116): > 100 µM (inactive)
- GI50 (SK-OV-3): 55.1 µM (inactive)
- GI50 (MDA-N): > 100 µM (inactive)
- GI50 (NCI/ADR-RES): 20.9 µM (inactive)
- GI50 (EKVX): 97.5 µM (inactive)
- GI50 (U-251): 28 µM (inactive)
- GI50 (KM12): 36.1 µM (inactive)
- GI50 (UO-31): 58.5 µM (inactive)
- GI50 (MOLT-4): 35 µM (inactive)
- GI50 (TK-10): > 100 µM (inactive)
- GI50 (M14): 34.2 µM (inactive)
- GI50 (NCI-H23): 31 µM (inactive)
- GI50 (HL-60): 24 µM (inactive)
- GI50 (SW-620): 18.4 µM (inactive)
- GI50 (SN12C): 45.2 µM (inactive)
- GI50 (SF-268): 51.4 µM (inactive)
- GI50 (BT-549): 34.1 µM (inactive)
- GI50 (MCF7): 24.4 µM (inactive)

SMILES: CSCCCS/C1=C/CCCCCCCCCC1
- GI50 (SK-MEL-28): > 100 µM (inactive)
- GI50 (IGROV-1): > 100 µM (inactive)
- GI50 (SK-MEL-5): > 100 µM (inactive)
- GI50 (HT-29): > 100 µM (inactive)
- GI50 (HCT-15): > 100 µM
- GI50 (SNB-19): > 100 µM (inactive)
- GI50 (LOX IMVI): > 100 µM (inactive)
- GI50 (PC-3): > 100 µM (inactive)
- GI50 (OVCAR-4): > 100 µM (inactive)
- GI50 (SF-539): > 100 µM (inactive)
- GI50 (SNB-75): 0.281 µM (active)
- GI50 (OVCAR-5): > 100 µM (inactive)
- GI50 (Malme-3M): > 100 µM (inactive)
- GI50 (UACC-62): > 100 µM (inactive)
- GI50 (HCC 2998): > 100 µM (inactive)
- GI50 (SR): > 100 µM (inactive)
- GI50 (NCI-H460): > 100 µM (inactive)
- GI50 (COLO 205): > 100 µM (inactive)
- GI50 (RPMI-8226): > 100 µM (inactive)
- GI50 (OVCAR-3): > 100 µM (inactive)
- GI50 (DU-145): > 100 µM (inactive)
- GI50 (HOP-92): > 100 µM (inactive)
- GI50 (UACC-257): > 100 µM (inactive)
- GI50 (SF-295): > 100 µM (inactive)
- GI50 (SK-MEL-2): > 100 µM (inactive)
- GI50 (HOP-62): > 100 µM (inactive)
- GI50 (A549): > 100 µM (inactive)
- GI50 (786-0): > 100 µM (inactive)
- GI50 (ACHN): > 100 µM (inactive)
- GI50 (NCI-H226): > 100 µM (inactive)
- GI50 (K562): > 100 µM (inactive)
- GI50 (RXF 393): > 100 µM (inactive)
- GI50 (MDA-MB-435): > 100 µM (inactive)
- GI50 (CAKI-1): > 100 µM (inactive)
- GI50 (HCT-116): > 100 µM (inactive)
- GI50 (SK-OV-3): > 100 µM (inactive)
- GI50 (Hs-578T): > 100 µM (inactive)
- GI50 (MDA-N): > 100 µM (inactive)
- GI50 (NCI/ADR-RES): > 100 µM (inactive)
- GI50 (EKVX): > 100 µM (inactive)
- GI50 (U-251): > 100 µM (inactive)
- GI50 (KM12): > 100 µM (inactive)
- GI50 (A498): > 100 µM (inactive)
- GI50 (UO-31): > 100 µM (inactive)
- GI50 (MOLT-4): > 100 µM (inactive)
- GI50 (TK-10): > 100 µM (inactive)
- GI50 (M14): > 100 µM (inactive)
- GI50 (NCI-H23): > 100 µM (inactive)
- GI50 (HL-60): > 100 µM (inactive)
- GI50 (SN12C): > 100 µM (inactive)
- GI50 (SF-268): > 100 µM (inactive)
- GI50 (MDA-MB-231): > 100 µM (inactive)
- GI50 (T47D): > 100 µM (inactive)
- GI50 (MCF7): > 100 µM (inactive)
